From US20040014702A1, “Mammalian prostaglandin H synthase-2” (priority 1992, published 2004)
Each block holds one compound with its values, some of them ahead of it.

Experiments:
PGHS-2 = settings: cytokine-treated astrocytes; cited from earlier work
colon polyp = settings: patients with familial polyposis; cited from earlier work
griPGHS = biological target: T1, griPGHS (Mus musculus, UniProt Q05769); settings: E9 cells
T1 sequence (Q05769 18-604): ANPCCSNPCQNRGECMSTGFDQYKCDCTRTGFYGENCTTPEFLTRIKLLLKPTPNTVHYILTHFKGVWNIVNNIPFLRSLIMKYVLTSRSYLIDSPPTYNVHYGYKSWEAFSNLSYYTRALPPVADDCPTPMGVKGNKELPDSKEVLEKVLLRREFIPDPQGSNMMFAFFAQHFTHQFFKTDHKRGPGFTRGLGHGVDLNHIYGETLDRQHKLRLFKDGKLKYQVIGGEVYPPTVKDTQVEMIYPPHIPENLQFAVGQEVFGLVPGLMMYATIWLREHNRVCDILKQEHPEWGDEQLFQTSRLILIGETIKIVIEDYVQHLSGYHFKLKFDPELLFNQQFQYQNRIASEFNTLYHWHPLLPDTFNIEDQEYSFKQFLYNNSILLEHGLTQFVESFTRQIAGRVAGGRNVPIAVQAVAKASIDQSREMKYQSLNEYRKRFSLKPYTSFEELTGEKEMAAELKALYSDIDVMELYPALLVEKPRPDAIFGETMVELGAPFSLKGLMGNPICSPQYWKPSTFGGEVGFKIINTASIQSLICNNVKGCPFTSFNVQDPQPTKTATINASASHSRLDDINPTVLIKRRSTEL
Protocol: (§1) Cyclooxygenase activity was determined in the cultures by addition of media containing exogenous arachidonic acid substrate (30 AM for 15 min. at 37° C.) followed by conversion of the prostaglandin E2 product to a methyl oximate form. This derivative was then quantitated by radioimmunoassay (kit from Amersham Corp.).
Prostaglandin assays were carried out as described above. For drug studies, cells were exposed to various concentrations of drugs for 30 min in serum-free DMEM and arachidonic acid was added directly from a 25×stock in DMEM. Supernatants were harvested 15 min later. Controls consisted of no drugs and wells treated with maximal concentrations of drug vehicles (1% methanol or ethanol).
Cells were placed in serum-free medium with the drugs for 30 min prior to a 15 min exposure to arachidonic acid (added directly to the media). Synthesized PGE2 was then quantitated from the supernatants by a standard radio immunoassay.

human PGHS-2 = biological target: T2, human PGHS-2 (Homo sapiens, UniProt P35354); settings: cell lines incl. H17A5 (PGHS-1) and 4B4 (PGHS-2), 30 min drug, 15 min arachidonic acid
T2 sequence (P35354 18-604): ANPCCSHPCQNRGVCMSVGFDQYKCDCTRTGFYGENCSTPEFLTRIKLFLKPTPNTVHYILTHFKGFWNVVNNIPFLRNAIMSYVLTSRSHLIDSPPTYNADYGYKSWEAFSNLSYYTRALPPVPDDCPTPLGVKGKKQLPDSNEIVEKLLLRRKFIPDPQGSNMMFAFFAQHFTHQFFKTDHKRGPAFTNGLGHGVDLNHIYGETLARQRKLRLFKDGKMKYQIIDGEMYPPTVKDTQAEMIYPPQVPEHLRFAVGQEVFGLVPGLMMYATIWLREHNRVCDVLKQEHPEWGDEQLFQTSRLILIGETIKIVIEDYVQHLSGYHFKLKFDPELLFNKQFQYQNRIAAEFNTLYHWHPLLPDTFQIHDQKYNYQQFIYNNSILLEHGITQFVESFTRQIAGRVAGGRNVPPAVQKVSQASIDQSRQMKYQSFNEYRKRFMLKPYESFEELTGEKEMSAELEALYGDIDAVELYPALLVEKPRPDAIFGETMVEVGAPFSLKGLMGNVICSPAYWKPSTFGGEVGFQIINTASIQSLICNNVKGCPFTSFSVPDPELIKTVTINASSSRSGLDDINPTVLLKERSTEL
Protocol: PGHS-1 and PGHS-2 cell lines (including 4B4 and H17A5) were exposed to various concentrations of NSAID for 30 min in serum-free DMEM. Arachidonic acid was added directly from a 25×stock in DMEM and supernatants were harvested 15 min later. Controls consisted of no drug treatment and cells treated with the maximal concentrations of drug vehicles (1% methanol or ethanol). […] Cyclooxygenase activity was determined as described herein above.

colon tumor = settings: several clinical trials; cited from earlier work
C127 mouse fibroblasts = assay: Inhibition of protein synthesis in C127 cell cultures; assay type: cell-based; settings: C127, 0.25 h, within 15 min
Protocol: Exponentially growing, subconfluent (60-80%) cell monolayers (35-mm plates) were labeled in Dulbecco's modified Eagle's medium without methionine (Life Technologies) plus 200 μCi/ml Tran^35S-label (>1,000 Ci/mmol; ICN) for 15 or 30 min. In some cases, fresh fetal calf serum (10%) was present during the labeling period. Monolayers were rinsed twice with ice-cold Dulbecco's modified Eagle's medium (DMEM) with methionine prior to lysis in 200 μl of A8 buffer (9.5 M urea, 2% (w/v) Nonidet P-40, 2% (w/v) ampholines (LKB, 1.6% pH range 5-8, 04.% pH range 3.5-10), 5% (w/v) 2-mercaptoethanol). Incorporation of label into proteins was determined by trichloroacetic acid precipitation. Dexamethasone (Sigma) was freshly prepared in phosphate-buffered saline (PBS) (stock concentrations based on molar extinction coefficient of 1.5×10^4 liters/mol/cm at 250 nn) and added to 1 μM. The calcium ionophore A23187 (Calbiochem) was used at a concentration of 5 μM from a 2.5 mM stock in ethanol. Cycloheximide (Sigma) was used at a concentration of 25 μM from a 100× stock in water. This level inhibited protein synthesis by >97% within 15 min. Control cultures received appropriate amounts of solvents.

2.8-kb PGHS mRNA = assay: Northern blot of 2.8-kb PGHS (PGHS-1) mRNA in human monocytes; assay type: cell-based; settings: IL-1β, dexamethasone or cycloheximide treatment
Protocol: (§2) Poly-A enriched RNAs (2.5 μg) from C127 cells were fractionated by formaldehyde-agarose gel electrophoresis and transferred to a membrane (Duralon, Stratagene). Hybridization was carried out as previously described by O'Banion et al., 1991, J. Virol., 65:3481-3488, using the 5′ 1.2 kb EcoRI fragment of the 4.1 kb cDNA labeled with ^32P by random priming as disclosed by Feinberg et al., 1983, Anal. Biochem., 132:6-13. The membrane was later rehybridized with a similarly labeled portion (1.6 kb 5′ end) of the 2.8 kb ovine PGHS cDNA (Oxford Biomedical Research, Inc.), and an end-labeled 40-mer complimentary to β-tubulin (Oncor). RNA molecular weight markers (Life Technologies) were visualized by ethidium bromide staining. A similar analysis was performed on total RNA (5 μg/lane) isolated from human monocytes by the guanidinium-acid-phenol extraction method of Chomczynski et al., 1987, Anal. Biochem., 162:156-159.
Adherent human monocytes isolated from healthy donors as described by Roberts et al., 1978, J. Immunol, 121:1052-1058, were suspended in M199 medium without serum at 1×10^6 cells/ml. one ml aliquots in 5 ml polypropylene tubes were incubated with loosened caps in 5% CO2 at 37° C. with occasional shaking. […]

[1] = system: griPGHS mRNA (4.8-kb mRNA); assay: Northern blot of griPGHS (PGHS-2) mRNA in human monocytes; assay type: cell-based; settings: for increased levels of griPGHS mRNA relative to control: IL-1β 10 half-maximal units
Protocol: as §2
(§3) Adherent human monocytes isolated from healthy donors as described by Roberts et al., 1978, J. Immunol, 121:1052-1058, were suspended in M199 medium without serum at 1×10^6 cells/ml. one ml aliquots in 5 ml polypropylene tubes were incubated with loosened caps in 5% CO2 at 37° C. with occasional shaking. To derive the autoradiograph shown in FIG. 3A, monocytes were incubated for 4 hr in the presence or absence of dexamethasone (1 AM; Sigma) prior to total RNA isolation by the procedure of P. Chomczynski et al., cited above. Five μg RNA was subjected to Northern blot analysis as described by O'Banion et al., 1991, J. Biol. Chem., 34:23261-23267 with the indicated probes labeled by random priming (kit from Boehringer-Mannheim) to a specific activity >1×10^9 cpm/μg. To derive the autoradiograph shown in FIG. 3B, monocytes were treated with dexamethasone (1 μM), […] (10 half-maximal units, Collaborative Research), or both for the indicated times prior to RNA isolation. Cycloheximide (25 μM; Sigma) was added to one set of incubations 15 min prior to the addition of cytokine or hormone.

human monocytes = assay: Accumulated PGE2 in supernatant of human monocytes; assay type: cell-based; settings: after 4 hr of incubation, dexamethasone 1 μM; without 122.5
Protocol: as §1
as §3, with “Cycloheximide (25 μM; Sigma) was added to one set of incubations 15 min prior to the addition of cytokine or hormone.” left out

[2] = system: lung disease of cystic fibrosis; settings: high-dose, cystic fibrosis patient population; cited from earlier work

Compound: CS(=O)(=O)Nc1ccc([N+](=O)[O-])cc1OC1CCCCC1 [NS-398]
induced cyclooxygenase activity (PGHS-2): blocked

Compound: CC1=C(CC(=O)O)c2cc(F)ccc2/C1=C\c1ccc([S+](C)[O-])cc1 (stereo not drawn) [Sulindac]
effect on colon polyps (colon polyp): colon polyp regression

potency against griPGHS activity (rank among four NSAIDs) (griPGHS; 0.2 μM-2 mM, 30 min drug then 15 min arachidonic acid): the least
concentration not sufficient for full inhibition of griPGHS activity (griPGHS; highest dose tested): > 2 mM
Compound: CC(=O)Nc1ccc(O)cc1 [acetaminophen]

Compound: CC(=O)Oc1ccccc1C(=O)O [aspirin]
levels of drug required for inhibition, cells expressing PGHS-1 versus PGHS-2 (human PGHS-2): different
association of use with colon tumor outcome (colon tumor): decreased colon tumor growth and death

Compound: C[C@@H]1C[C@@H]([C@H](O)CC2CC(=O)NC(=O)C2)C(=O)[C@@H](C)C1 [cycloheximide]
inhibition at 25 µM (C127 mouse fibroblasts): > 97%
levels of the 2.8-kb mRNA relative to β-tubulin (2.8-kb PGHS mRNA): not significantly altered
effect on 4.8-kb griPGHS mRNA ([1]; cycloheximide 25 μM added 15 min before cytokine or hormone): superinduction

Compound: C[C@@H]1C[C@H]2[C@@H]3CCC4=CC(=O)C=C[C@]4(C)[C@@]3(F)[C@@H](O)C[C@]2(C)[C@@]1(O)C(=O)CO [dexamethasone]
level of accumulated PGE2 in the supernatant (human monocytes): 52.5 pg per 10^4 monocytes
griPGHS mRNA levels down-regulated, normalized to β-tubulin ([1]; dexamethasone 1 μM, 4 hr, human monocytes): 5 fold

Compound: CC(C)Cc1ccc(C(C)C(=O)O)cc1 (stereo not drawn) [ibuprofen]
effect on lung disease [2]: slows the progression of lung disease

Compound: IL-1β: proinflammatory cytokine, known mediator of inflammation (Collaborative Research)
levels of the 2.8-kb mRNA relative to β-tubulin (2.8-kb PGHS mRNA): not significantly altered
increased levels of griPGHS mRNA relative to control ([1]; 4 hr, human monocytes): 2.5 fold
increased levels of griPGHS mRNA relative to control ([1]; 12 hr, human monocytes): 14 fold
